These results are taken from patent publication US4742053A, “3-Isoquinoliniomethyl cephalosporin derivatives” (Banyu Pharmaceutical Co., Ltd., priority 1984, dated 1988).

Test in all cases: MIC by agar plate dilution method
Format in all cases: cell-based

Experiment [1] deals with P. vulgaris OB1043. The following applies: 10^6 CFU/ml; for MIC: Proteus vulgaris, OB1043, P. vulgaris OB1043, read-out: Minimum Inhibitory Concentration. As for the experimental part: (§1) The minimum inhibitory concentrations (MIC: μg/ml) of the compounds of the present invention against various microorganisms were measured by an agar plate dilution method (inoculum size: 10^6 CFU/ml) by using Sensitivity Disk Agar (Nissui) in comparison with Cefotaxime and Ceftazidime as comparative compounds.
(§2) Minimum Inhibitory Concentration (μg/ml; 10^6 CFU/ml)

The subject of experiment [2] is K. pneumoniae No. 42. To be noted: K. pneumoniae No. 42, 10^6 CFU/ml; for MIC: Klebsiella pneumoniae, read-out: Minimum Inhibitory Concentration. As to the method:
as §1, §2

Experiment [3] deals with P. cepacia 23. To be noted: P. cepacia 23, 10^6 CFU/ml; for MIC: Burkholderia cepacia, read-out: Minimum Inhibitory Concentration. As to the method:
as §1, §2

Experiment [4] has as its system S. aureus NIHJJC-1. The following applies: for MIC: Staphylococcus aureus. As to the method:
as §1, §2

Experiment [5] relates to P. mirabilis JY10. The following applies: P. mirabilis JY10, 10^6 CFU/ml; for MIC: Proteus mirabilis, read-out: Minimum Inhibitory Concentration. As for the experimental part: as §1, §2
The subject of experiment [6] is E. coli C/Rms149. To be noted: 10^6 CFU/ml; for MIC: Escherichia coli, read-out: Minimum Inhibitory Concentration, E. coli C/Rms149. As to the method:
as §1, §2

Experiment [7] concerns E. coli W3630/Rms212. The following applies: 10^6 CFU/ml; for MIC: Escherichia coli, W3630/RMS212, read-out: Minimum Inhibitory Concentration, E. coli W3630/Rms212. As to the method: as §1, §2
For experiment [8], the system named is P. aeruginosa AK109. To be noted: 10^6 CFU/ml; for Minimum Inhibitory Concentration: P. aeruginosa AK109; for MIC: Pseudomonas aeruginosa, AK109, P. aeruginosa AK109, read-out: Minimum Inhibitory Concentration. As for the experimental part:
as §1, §2

Experiment [9] has as its system C. freundii No. 7. To be noted: C. freundii No. 7, 10^6 CFU/ml; for MIC: Citrobacter freundii, read-out: Minimum Inhibitory Concentration. As for the experimental part:
as §1, §2

For experiment [10], the system named is E. cloaceae Nek 39. To be noted: E. cloaceae Nek 39, 10^6 CFU/ml; for MIC: read-out: Minimum Inhibitory Concentration. As for the experimental part: as §1, §2
For experiment [11], the system named is P. aeruginosa AKR17. The following applies: 10^6 CFU/ml; for MIC: Pseudomonas aeruginosa, AKR17, P. aeruginosa AKR17, read-out: Minimum Inhibitory Concentration. As for the experimental part:
as §1, §2

For experiment [12], the system named is S. aureus JS-1. The following applies: S. aureus JS-1, 10^6 CFU/ml; for MIC: Staphylococcus aureus, JS1, read-out: Minimum Inhibitory Concentration. As for the experimental part:
as §1, §2

The test system of experiment [13] is E. coli CSH2. The following applies: 10^6 CFU/ml; for MIC: Escherichia coli, read-out: Minimum Inhibitory Concentration. As to the method:
as §1, §2

For experiment [14], the system named is E. coli NIHJJC-2. To be noted: 10^6 CFU/ml; for MIC: Escherichia coli, NIHJJC2, E. coli NIHJJC-2, read-out: Minimum Inhibitory Concentration. As for the experimental part:
as §1, §2

The subject of experiment [15] is A. calcoaceticus No. 14. The following applies: 10^6 CFU/ml; for MIC: Acinetobacter calcoaceticus, NO.14, A. calcoaceticus No. 14, read-out: Minimum Inhibitory Concentration. As to the method: as §1, §2
The test system of experiment [16] is P. vulgaris No. 33. The following applies: P. vulgaris No. 33, 10^6 CFU/ml; for MIC: Proteus vulgaris, read-out: Minimum Inhibitory Concentration. As for the experimental part: as §1, §2
The test system of experiment [17] is E. coli W3630/Rms213. The following applies: 10^6 CFU/ml; for MIC: Escherichia coli, W3630/RMS213, read-out: Minimum Inhibitory Concentration, E. coli W3630/Rms213. As to the method:
as §1, §2

In experiment [18] the test system is E. coli CSH. To be noted: 10^6 CFU/ml; for MIC: Escherichia coli, read-out: Minimum Inhibitory Concentration. As to the method: as §1, §2
The subject of experiment [19] is E. coli ML1410/Rte16. The following applies: 10^6 CFU/ml; for MIC: Escherichia coli, ML1410/RTE16, read-out: Minimum Inhibitory Concentration, E. coli ML1410/Rte16. As to the method: as §1, §2
Experiment [20] concerns S. marcescens No. 16-2. To be noted: S. marcescens No. 16-2, 10^6 CFU/ml; for MIC: Serratia marcescens, NO.162, read-out: Minimum Inhibitory Concentration. As to the method:
as §1, §2

Setting [21] is: NIHJJC1, S. aureus NIHJJC-1, 10^6 CFU/ml, read-out: Minimum Inhibitory Concentration.

Converted amounts (≈) assume the structure as drawn. Read-outs that look alike come from different tables or passages of the source.

For `CC(C)(O/N=C(\C(=O)NC1C(=O)N2C(C(=O)[O-])=C(C[N+]3(C)CCc4ccccc4C3)CSC12)c1csc(N)n1)C(=O)O` (single isomer, unassigned) [Isomer A of Ex. 8-E, 7-[(Z)-2-(2-aminothiazol-4-yl)-2-(1-carboxy-1-methylethoxyimino)acetamido]-3-(2-methyl-1,2,3,4-tetrahydro-2-isoquinolinium)methyl-3-cephem-4-carboxylate], the MIC in experiment [1] is 0.1 µg/mL (≈ 0.163 µM); in experiment [2], 0.78 µg/mL (≈ 1.27 µM); in [3] it was 6.25 µg/mL (≈ 10.2 µM); in [4] (setting [21]), 6.25 µg/mL (≈ 10.2 µM); in experiment [5] it was 0.2 µg/mL (≈ 0.325 µM); in experiment [6], 0.2 µg/mL (≈ 0.325 µM). The MIC in [7] was 0.39 µg/mL (≈ 0.634 µM); in [9] it was 1.56 µg/mL (≈ 2.54 µM); in [10], 1.56 µg/mL (≈ 2.54 µM); in [11] it was 25 µg/mL (≈ 40.7 µM); in [12] it was greater than 25 µg/mL; in [13], 0.1 µg/mL (≈ 0.163 µM). Moreover, the MIC is 0.2 µg/mL (≈ 0.325 µM) in experiment [14]; 25 µg/mL (≈ 40.7 µM) in experiment [15]; 0.1 µg/mL (≈ 0.163 µM) in experiment [16]; 0.39 µg/mL (≈ 0.634 µM) in experiment [17]; 0.1 µg/mL (≈ 0.163 µM) in experiment [18]; 0.2 µg/mL (≈ 0.325 µM) in experiment [19]. The MIC in experiment [20] came to 3.12 µg/mL (≈ 5.08 µM). In addition, the “Minimum Inhibitory Concentration” value in experiment [8] turned out to be 6.25 µg/mL.
Turning to `CC(C)(O/N=C(\C(=O)NC1C(=O)N2C(C(=O)[O-])=C(C[N+]3(C)CCc4ccccc4C3)CSC12)c1csc(N)n1)C(=O)O` (single isomer, unassigned) [Isomer B of Ex. 8-E, 7-[(Z)-2-(2-aminothiazol-4-yl)-2-(1-carboxy-1-methylethoxyimino)acetamido]-3-(2-methyl-1,2,3,4-tetrahydro-2-isoquinolinium)methyl-3-cephem-4-carboxylate], the “Minimum Inhibitory Concentration” value is 0.2 µg/mL in experiment [1] (P. vulgaris OB1043); 0.78 µg/mL in experiment [2]; 6.25 µg/mL in experiment [3]; 12.5 µg/mL in [4] (S. aureus NIHJJC-1, 10^6 CFU/ml); 0.2 µg/mL in experiment [5]; 0.39 µg/mL in [6] (E. coli C/Rms149). The “Minimum Inhibitory Concentration” value in experiment [7] (E. coli W3630/Rms212) is 0.78 µg/mL; in [8], 3.12 µg/mL; in experiment [9] it was 1.56 µg/mL; in [10], 3.12 µg/mL; in [11] (P. aeruginosa AKR17), greater than 25 µg/mL; in experiment [12], greater than 25 µg/mL. The “Minimum Inhibitory Concentration” value in experiment [13] is 0.1 µg/mL; in experiment [14] (E. coli NIHJJC-2), 0.39 µg/mL; in experiment [15] (A. calcoaceticus No. 14), greater than 25 µg/mL; in [16], 0.1 µg/mL; in experiment [17] (E. coli W3630/Rms213), 0.78 µg/mL; in experiment [18], 0.2 µg/mL. Further, the “Minimum Inhibitory Concentration” value in [19] (E. coli ML1410/Rte16) worked out at 0.39 µg/mL; in [20], 3.12 µg/mL.
For `CO/N=C(\C(=O)NC1C(=O)N2C(C(=O)[O-])=C(C[N+]3(C)CCc4ccccc4C3)CSC12)c1csc(N)n1` (stereo not shown) [Ex. 1-B, 7-[(Z)-2-(2-aminothiazol-4-yl)-2-methoxyiminoacetamido]-3-(2-methyl-1,2,3,4-tetrahydro-2-isoquinolinium)methyl-3-cephem-4-carboxylate], the MIC is 0.78 µg/mL (≈ 1.44 µM) in [1]; 0.2 µg/mL (≈ 0.369 µM) in experiment [2]; 0.78 µg/mL (≈ 1.44 µM) in experiment [4] (setting [21]); 0.78 µg/mL (≈ 1.44 µM) in [5]; 0.1 µg/mL (≈ 0.184 µM) in experiment [6]; 0.2 µg/mL (≈ 0.369 µM) in [7]. In addition, the MIC in experiment [8] is 6.25 µg/mL (≈ 11.5 µM); in [9], 1.56 µg/mL (≈ 2.87 µM); in [10], 1.56 µg/mL (≈ 2.87 µM); in experiment [11] it was greater than 25 µg/mL; in experiment [12] it was 3.12 µg/mL (≈ 5.75 µM); in [13], 0.05 µg/mL (≈ 0.0921 µM). Further, the MIC in experiment [14] was 0.1 µg/mL (≈ 0.184 µM); in experiment [15] it was 25 µg/mL (≈ 46.1 µM); in [16], 0.2 µg/mL (≈ 0.369 µM); in [17], 1.56 µg/mL (≈ 2.87 µM); in experiment [18] it was 0.2 µg/mL (≈ 0.369 µM); in experiment [20], 6.25 µg/mL (≈ 11.5 µM).
For `CO/N=C(\C(=O)NC1C(=O)N2C(C(=O)[O-])=C(C[N+]3(C)CCc4cc(OC)c(OC)cc4C3)CSC12)c1csc(N)n1` (stereo not shown) [Ex. 2-E, 7-[(Z)-2-(2-aminothiazol-4-yl)-2-methoxyiminoacetamido]-3-(6,7-dimethoxy-2-methyl-1,2,3,4-tetrahydro-2-isoquinolinium)methyl-3-cephem-4-carboxylate], the MIC in experiment [1] was found to be 3.12 µg/mL (≈ 5.18 µM); in experiment [2], 1.56 µg/mL (≈ 2.59 µM); in experiment [4] (NIHJJC1, read-out: Minimum Inhibitory Concentration), 1.56 µg/mL (≈ 2.59 µM); in experiment [5], 3.12 µg/mL (≈ 5.18 µM); in experiment [6] it was 0.78 µg/mL (≈ 1.29 µM); in [7], 1.56 µg/mL (≈ 2.59 µM). Further, the MIC was 25 µg/mL (≈ 41.5 µM) in experiment [8]; 12.5 µg/mL (≈ 20.7 µM) in [9]; 12.5 µg/mL (≈ 20.7 µM) in experiment [10]; greater than 25 µg/mL in [11]; 12.5 µg/mL (≈ 20.7 µM) in experiment [12]; 0.2 µg/mL (≈ 0.332 µM) in experiment [13]. The MIC in experiment [14] is 0.78 µg/mL (≈ 1.29 µM); in experiment [15], greater than 25 µg/mL; in experiment [16] it was 1.56 µg/mL (≈ 2.59 µM); in experiment [17], 3.12 µg/mL (≈ 5.18 µM); in experiment [18] it was 1.56 µg/mL (≈ 2.59 µM); in [19], 0.78 µg/mL (≈ 1.29 µM). Moreover, in experiment [20], the MIC was greater than 25 µg/mL.
Consider `CCO/N=C(\C(=O)NC1C(=O)N2C(C(=O)[O-])=C(C[N+]3(C)CCc4ccccc4C3)CSC12)c1csc(N)n1` (stereo not shown) [Ex. 7-D, 7-[(Z)-2-(2-aminothiazol-4-yl)-2-ethoxyiminoacetamido]-3-(2-methyl-1,2,3,4-tetrahydro-2-isoquinolinium)methyl-3-cephem-4-carboxylate], for which the MIC in [1] was 0.78 µg/mL (≈ 1.4 µM); in [2], 0.78 µg/mL (≈ 1.4 µM); in [3] it was 6.25 µg/mL (≈ 11.2 µM); in experiment [4] (setting [21]), 0.39 µg/mL (≈ 0.701 µM); in experiment [5], 3.12 µg/mL (≈ 5.6 µM); in [6], 0.39 µg/mL (≈ 0.701 µM). In addition, the MIC was 0.78 µg/mL (≈ 1.4 µM) in [7]; 6.25 µg/mL (≈ 11.2 µM) in [8]; 3.12 µg/mL (≈ 5.6 µM) in [9]; 3.12 µg/mL (≈ 5.6 µM) in experiment [10]; greater than 25 µg/mL in experiment [11]; 6.25 µg/mL (≈ 11.2 µM) in experiment [12]. Further, the MIC in experiment [13] is 0.1 µg/mL (≈ 0.18 µM); in experiment [14] it was 0.39 µg/mL (≈ 0.701 µM); in experiment [15], 25 µg/mL (≈ 44.9 µM); in [16] it was 0.39 µg/mL (≈ 0.701 µM); in experiment [17] it was 0.78 µg/mL (≈ 1.4 µM); in experiment [18] it was 0.2 µg/mL (≈ 0.359 µM). The MIC in experiment [19] is 0.39 µg/mL (≈ 0.701 µM); in experiment [20], 6.25 µg/mL (≈ 11.2 µM).
